# Assay results published in US6376506B1, “Sulfamide-metalloprotease inhibitors” (Syntex (U.S.A.) LLC, priority 1997, dated 2002).
# Experiments:
# Human Monomac 6 cells = test: Inhibition of TNF release in vitro assay (LPS/PMA stimulated); type: cell-based; conditions: Conc. 2 μM, LPS/PMA stimulated Monomac 6 cells, 2 h
# Method: The activity of compounds of this invention in inhibiting the TNF release was determined, using the a minor modification of the method described in Pradines-Figueres, A. and Raetz, C. R. H., J. Biol. Chem., 267 (32), 23261, (1992).
# Human Monomac 6 cells (Ziegler-Heitbrock, H. W. L., et al., Int. J. Cancer, 41, 456, (1988)) were cultured at 37° C. in RPMI 1640 medium containing 10% fetal calf serum to a density of 1×10^5 cells/ml. 0.23 ml of these cells were placed in each well of a tissue culture plate and the cells were incubated for 15 min. The test compounds were dissolved in above mentioned medium and added and the incubation was continued for an additional 15 min. 10 μl of an lipopolysaccharide/phorbol-12-myristate-13-acetate (LPS/PMA) mixture was added such that the final concentration of lipopolysaccharide was 10 ng/ml and the final concentration of phorbol-12-myristate-13-acetate was 30 ng/ml. The cells were incubated for 2 h after which the plate was centrifuged and the medium was removed and analyzed for TNF content. The analysis was performed using a TNF Quantikine® Immunoassay (R & D Systems, Minneapolis, Minn. 55413) by following the manufacturer's protocol.
# TNF-α = test: Inhibition of LPS induced TNF-α production in mice in vivo assay; conditions: female Balb/c mice, compound subcutaneously 1 h before LPS i.p., serum TNF-α 1.5 h after LPS
# Method: The activity of compounds of this invention in inhibiting the TNF-α release was determined using a minor modification of the methods described in Zanetti, G.; Heumann, D., et. al., “Cytokine production after intravenous or peritoneal Gram-negative bacterial challenge in mice” J. Immunol., 148, 1890, (1992) and Sekut, L., Menius, J. A., et. al., “Evaluation if the significance of related levels of systemic and localized tumor necrosis factor in different animal models of inflammation” J. Lab. Clin. Med., 124, 813, (1994).
# Female Balb/c mice were anesthetized and injected subcutaneously with the test compounds dissolved in CMC vehicle or hydroxypropylmethyl cellulose based vehicle. Control animals received only the vehicle. After 1 h, LPS (50 μg/mouse, Sigma #13129, Sigma Chemical Co., St. Louis, Mo.) was injected intraperitoneally. After 1.5 h, blood was collected from the retro-orbital plexus region of the animals in a microtainer serum separator tube (Becton Dickinson, Cat. No. #5960, Becton Dickinson & Co., Franklin Lakes, N.J.). The sera was separated and the amount of TNF-α was determined using the EM-TNFA® kit (Endogen, Woburn, Mass.) by following the manufacturer's protocol.
# [1] = tested on: collagen matrix of bovine cartilage explants; test: Degradation of cartilage plug in vitro (IL-1 stimulated cartilage explant, hydroxyproline content); type: cell-based; conditions: IL-1-α stimulated bovine cartilage explants, 21 days, hydroxyproline content relative to control; compounds at 10 to 300 nm
# Method: The ability of the compounds of this invention to inhibit the degradation of the collagen matrix (as judged by release of hydroxyproline) was determined by the cartilage plug degradation assay in vitro by following a slight modification of the method described in Spirito, S., Doughty, E., et al., “Metalloproteinase inhibitors halt collagen breakdown in IL-1 induced bovine nasal cartilage cultures” Inflamm. Res., 44, Supp. 2: S131—S132, (1995).
# Cartilage explants prepared from freshly sacrificed bovine knee joints were added to the culture medium (Dubelco's modified eagle medium, Gibco # 21063-001, Gibco BRL Products, Gaithersburg, Md.), without phenol red, but with HEPES, and L-glutamine and fungizone 2.5 μg/ml, gentamicin 50 μg/ml, penicillin 100 U/ml, and streptomycin 100 μg/ml). The cultures were stimulated with IL-1-α at a final concentration of 20 ng/ml. Compounds of Formula (I), were added at concentrations between 10 and 300 nm in DMSO. The control samples contained only L-1-α. The cultures were incubated at 37° C. in an atmosphere of air with 6% CO2 for 21 days during which time the medium was changed twice/week. The cartilage plugs were removed, hydrolyzed and the hydroxyproline content was determined. The MMP inhibitory activity of test materials is the measure of the hydroxyproline content in the test group relative to the vehicle treated group (control group).
# [2] = tested on: bovine nasal cartilage plugs implanted subcutaneously in female Lewis rats; test: Cartilage plug degradation in vivo (cartilage plug implant assay, hydroxyproline content); design: species or system rat; conditions: 8 or 9 days, hydroxyproline content relative to vehicle group
# [3] = target: T1, human collagenase-3 catalytic domain (Homo sapiens, UniProt P45452); test: MMP inhibition in vitro, human collagenase-3; type: biochemical; conditions: MCA-Pro-Leu-Gly-Leu-DPA-Ala-Arg-NH2 hydrolysis at 37° C.; read-out: Collagenase-III IC50
# T1 construct: After purification, the catalytic domain was released by treatment with 1 mM APMA for 1 hour at 37° C; ubiquitin (N, cleaved yes); made in house; host or cells: E. coli
# Method: The propeptide and catalytic domain portion of human collagcenase-3 was expressed in E. Coli as an N-terminal fusion protein with ubiquitin. After purification, the catalytic domain was released by treatment with 1 mM APMA for 1 hour at 37° C., and then purified by zinc chelate chromatography.
# (§1) The matrix metalloprotease inhibitory activity of compounds of this invention in vitro was determined based on the hydrolysis of MCA-Pro-Leu-Gly-Leu-DPA-Ala-Arg-NH2 (Bachem, Inc.) at 37° C. as described in Knight, C. G., et al., FEBS Lett., 296, 263-266 (1992).
# (§2) The matrix metalloprotease enzyme was diluted with assay buffer (50 mM Tricine pH 7.5, 200 mM NaCl, 10 mM CaCl2, and 0.005% Brij-35) containing 10 μmole of above substrate dissolved in DMSO. Compounds of the invention dissolved in DMSO or only DMSO (control samples) were added such that the final DMSO concentration in all assays was 2.5%. The fluorescence changes were monitored with a Perkin-Elmer LS-50B flourimeter using an excitation wavelength of 328 nm and an emission wavelength of 393 nm.
# [4] = target: T2, human collagenase-1 catalytic domain (Homo sapiens, UniProt P03956); test: MMP inhibition in vitro, human collagenase-1; type: biochemical; conditions: MCA-Pro-Leu-Gly-Leu-DPA-Ala-Arg-NH2 hydrolysis at 37° C.; read-out: Collagenase-I IC50
# T2 construct: the collagenase-1 catalytic domain was released by treatment with 1 mM of aminophenylmercuric acetate (APMA); ubiquitin (cleaved yes); made in house; host or cells: E. coli
# T2 sequence (P03956 100-269 limits assumed): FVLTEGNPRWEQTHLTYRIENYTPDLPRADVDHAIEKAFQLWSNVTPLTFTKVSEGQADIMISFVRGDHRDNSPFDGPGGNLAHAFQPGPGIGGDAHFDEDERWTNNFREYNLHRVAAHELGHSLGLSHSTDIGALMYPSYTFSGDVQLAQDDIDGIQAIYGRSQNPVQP
# Method: The catalytic domain of human collagenase-1 was expressed as a fusion protein with ubiquitin in E. Coli as described in Gehring, E. R. et al., J. Biol. Chem., 270, 22507, (1995). After purification of the fusion protein, the collagenase-1 catalytic domain was released by treatment with 1 mM of aminophenylmercuric acetate (APMA) for 1 hour at 37° C. and then purified by zinc chelate chromatography.
# as §1, §2
IC50 [3],melting point,IC50 [4],Molecule,% inhibition (Human Monomac 6 cells),% inhibition (TNF-α),% protection [1],% protection [2]
–,–,–,N-hydroxy-4-(morpholine-4-ylcarbonyl)piperazine-1-sulfonyl]-4-(S)-hydroxypiperidine-2-(R)-carboxamide [compound 321],93%,50%,–,–
6.6 nM,146.1 to 146.6 °C,530 nM,"O=C(NO)C1(NS(=O)(=O)N2CCN(c3ccc(Cl)cc3)CC2)CCCCC1 [compound 345, N-hydroxy-1-{[4-(4-chlorophenyl)piperazine-1-sulfonyl]amino}-cyclohexane-1-carboxamide]",–,–,–,–
0.73 nM,149 to 156 °C,7600 nM,"CC(C)[C@@H](NS(=O)(=O)N1CCN(c2ccc(OCc3ccccc3)cc2)CC1)C(=O)NO [compound 74, N-hydroxy-2-(R)-{[4-(4-benzyloxyphenyl)piperazine-1-sulfonyl]amino}-3-methylbutyramide]",–,–,–,–
0.19 nM,90.7 to 93 °C,250 nM,C[C@@H](NS(=O)(=O)N1CC=C(c2ccc(Cl)cc2)CC1)C(=O)NO [compound 401],–,–,–,–
0.063 nM,84.4 to 86.4 °C,67 nM,O=C(c1ccc(Cl)cc1)C1CCN(S(=O)(=O)N2CCCC[C@@H]2C(=O)NO)CC1 [compound 242],–,–,–,–
0.92 nM,86 to 86.7 °C,338 nM,O=C(NO)[C@H](CSCc1ccccc1)NS(=O)(=O)N1CCN(c2ccc(Cl)cn2)CC1 [compound 102],–,–,–,–
660 nM,80.6 to 85.7 °C,550 nM,"CC(C)[C@H](C(=O)NO)N(Cc1ccccc1)S(=O)(=O)N1CCCCC1 [compound 1, N-hydroxy-2-(R)-[benzyl-(piperdine-1-sulfonyl)amino]-3-methybutyramide]",–,–,–,–

Molecule,IC50 [3],melting point,IC50 [4],% inhibition (Human Monomac 6 cells),% inhibition (TNF-α),% protection [1],% protection [2]
"CC(C)[C@@H](NS(=O)(=O)N1CCC(Oc2ccc(Cl)cc2)CC1)C(=O)NO [compound 59, N-hydroxy-2-(R)-{[4-(4-chlorophenoxy)piperidine-1-sulfonyl]amino}-3-methylbutyramide]",0.18 nM,139.2 to 139.6 °C,110 nM,–,–,54%,58%
"N-hydroxy-1-[4-(4,5,6,7-tetrafluoroindol-3-yl)piperazine-1-sulfonyl]piperidine-2-(RS)-carboxamide [compound 299]",410 nM,–,> 50000 nM,90%,52%,–,–
O=C(NO)C1CCCCN1S(=O)(=O)N1CCC(c2noc3cc(F)ccc23)CC1 (racemic) [compound 286],0.063 nM,145.8 to 146.9 °C,29 nM,–,–,–,–
"CC(C)[C@@H](NS(=O)(=O)N1CCN(c2ccc(Cl)cn2)CC1)C(=O)NO [compound 50, N-hydroxy-2-(R)-{[4-(5-chloropyridin-2yl)piperazine-1-sulfonyl]amino}-3-methylbutyramide]",1.3 nM,146.7 to 147 °C,220 nM,–,–,–,–
CN(C)C(=O)N1CCN(S(=O)(=O)N2CCC(c3c[nH]c4c(F)c(F)c(F)c(F)c34)CC2)[C@@H](C(=O)NO)C1 [compound 309],500 nM,181 to 184 °C,> 50000 nM,–,–,–,–
"CC(C)[C@@H](NS(=O)(=O)N1CCC(Oc2ccc(Cl)cn2)CC1)C(=O)NO [compound 100, N-hydroxy-2-(R)-{[4-(5-chloropyridin-2-yloxy)piperidine-1-sulfonyl]amino}-3-methylbutyramide]",–,97 to 98.4 °C,–,–,–,68%,40%
